The values that follow come from US8129396B2, “2-[1H-benzimidazol-2(3H)-ylidene]-2-(pyrimidin-2-yl)acetamides and 2-[benzothiazol-2(3H)-ylidene]-2-(pyrimidin-2-yl)acetamides as kinase inhibitors” (Telik, Inc., priority 2008, dated 2012).

A value given as a limit tells only on which side of the number the result lay.

The target of one test is T1, Aurora A kinase (Homo sapiens, UniProt O14965).
T1 construct: purchased Upstate Biotech
T1 sequence (O14965 1-403): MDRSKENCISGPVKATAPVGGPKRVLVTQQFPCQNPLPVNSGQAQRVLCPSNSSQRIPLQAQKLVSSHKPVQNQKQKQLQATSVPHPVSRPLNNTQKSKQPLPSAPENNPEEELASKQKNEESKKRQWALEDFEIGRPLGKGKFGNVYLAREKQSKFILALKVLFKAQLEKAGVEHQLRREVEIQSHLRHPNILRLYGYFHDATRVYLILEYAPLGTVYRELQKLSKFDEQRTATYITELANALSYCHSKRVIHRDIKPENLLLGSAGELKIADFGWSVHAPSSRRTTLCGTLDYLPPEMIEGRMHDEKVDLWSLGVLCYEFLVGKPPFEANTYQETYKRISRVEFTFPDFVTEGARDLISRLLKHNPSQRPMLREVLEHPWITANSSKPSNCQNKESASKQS
Nature of the test: Aurora A kinase assay (IMAP fluorescence polarization). The test is classed as biochemical. As to conditions: 10 μM ATP; rounded to 1 significant figure; read-out: Aur-A IC50. The source says: (§1) The cell lines HL60 (human promyelocytic leukemia) and HCT116 (human colon carcinoma) were obtained from the American Type Culture Collection, Manassas, Va., U.S.A., and HUVEC-2 (human umbilical vein endothelial cells) from BD Biosciences, Bedford, Mass., U.S.A. Aurora A kinase was obtained from Upstate Biotech, Billerica, Mass., U.S.A.; Aurora B kinase from BPS Bioscience, San Diego, Calif., U.S.A.; and VEGFR2 kinase from Cell Signaling Technology, Danvers, Mass., U.S.A. The IMAP FP Screening Express kit was obtained from Molecular Devices, Sunnyvale, Calif., U.S.A.; the CellTiter-Glo assay kit from Promega Corporation, Madison, Wis., U.S.A.; and the Cellular DNA Cytometric Analysis Reagent Kit and BrdU labeling and detection kit from Roche Diagnostics Corporation, Indianapolis, Ind., U.S.A. All products were used in accordance with manufacturer's directions. Kinase inhibition assays and the histone phosphorylation (p-H3) assay were conducted in duplicate, and the cytotoxicity and HUVEC proliferation assays were conducted in triplicate, in each case with solvent control.
Aurora A kinase assay: the test compounds were diluted in dimethylsulfoxide (DMSO, eight concentrations with serial 3-fold dilutions) and incubated (final DMSO concentration 2.5%) with Aurora A kinase at room temperature for 5 min in kinase reaction buffer with 1 mM dithiothreitol (IMAP FP Screening Express). The kinase reaction was initiated by adding 100 nM fluorescein labeled PKAtide and 10 μM adenosine triphosphate (ATP), and allowed to continue for 45 min at room temperature, after which it was stopped by adding binding reagent (1:400 dilution in binding buffer A). After 30 min of room temperature incubation with shaking, the fluorescence polarization was measured on a LJL plate reader. Aurora B kinase assay: performed as for the Aurora A kinase assay, but using Aurora B kinase instead of Aurora A kinase.
On the technique in general: In fluorescence polarisation assays a small probe gives low polarisation when free and higher when bound to something large.

A further test concerns the target T2, Aurora B kinase (Homo sapiens, UniProt Q96GD4).
T2 construct: purchased BPS Bioscience
Nature of the test: Aurora B kinase assay (IMAP fluorescence polarization). The test is classed as biochemical. The conditions noted are these: 10 μM ATP; rounded to 1 significant figure; read-out: Aur-B IC50.
From the text: as §1
The kinase reaction was initiated by adding 100 nM fluorescein labeled PKAtide and 10 μM adenosine triphosphate (ATP), and allowed to continue for 45 min at room temperature, after which it was stopped by adding binding reagent (1:400 dilution in binding buffer A). After 30 min of room temperature incubation with shaking, the fluorescence polarization was measured on a LJL plate reader. Aurora B kinase assay: performed as for the Aurora A kinase assay, but using Aurora B kinase instead of Aurora A kinase.

Another test concerns the target T3, VEGFR2 kinase (Homo sapiens, UniProt P35968).
T3 construct: purchased Cell Signaling Technology
Briefly: VEGFR2 kinase assay. The format is biochemical. The conditions noted are these: 6 μM ATP, 1 mM MnCl2; rounded to 1 significant figure.
From the text: as §1
This assay was performed as for the Aurora A kinase assay, using VEGFR2 kinase, CSKtide as the substrate with 6 μM ATP and 1 mM MnCl2, a kinase reaction time of 1 hr, and dilution of the binding reagent 1:1200 in binding buffer A/binding buffer B (1:1).

For a further test, the system named is p-H3 in HCT116 cells. Nature of the test: Histone phosphorylation (p-H3) assay. The test is classed as cell-based. The conditions noted are these: Homo sapiens, HCT-116; HCT116 cells, 4 hr incubation; read-out: p-H3 IC50.
From the text: as §1
Log phase HCT116 cells were seeded at 2.5×10^4 cells/well in a 96-well plate and allowed to attach overnight. The test compounds were diluted in DMSO (8 concentrations with serial 3-fold dilutions) and added to the cells (0.5% DMSO final concentration), and the cells incubated for 4 hr. The cells were then washed three times with cold phosphate-buffered saline (PBS), and lysis buffer was added. After 30 min shaking at 4° C. and centrifugation, the supernatants were transferred to a nitrocellulose membrane by a “dot-blot” apparatus. After washing the wells, the membrane was processed for Western blot. Detection of p-H3 and β-actin was performed on the same membrane with primary rabbit anti-p-H3 and mouse anti-β-actin antibodies followed by secondary goat anti-rabbit IRDye800 and goat anti-mouse AlexaFluor 680 antibodies. The membranes were scanned on an Odyssey scanner.

The subject of test [1] is HCT116 (human colon carcinoma) cells. Nature of the test: HCT116 cytotoxicity assay (CellTiter-Glo). The format is cell-based. The conditions noted are these: HCT-116, 72 h, cytotoxicity, three days culture, read-out: HCT116 IC50.
From the text: as §1
Log-phase cells were trypsinized, collected by centrifugation, and resuspended in a small volume of fresh medium, and the density of viable cells was determined following Trypan Blue staining. Cells were diluted in fresh media (1×10^4 cells/mL for HL60 and 4×10^4 cells/mL for HCT116 cells), the test compounds (concentrations between 0.1 μM and 200 μM, dissolved in DMSO, 50 μL) added immediately after dilution to achieve a final DMSO concentration of 0.5%, then the suspensions added at 150 μL/well to 96-well plates, and incubated overnight to allow attachment in the case of adherent cells. The cells were cultured for three days (about three doubling times). The cells were then collected by centrifugation, and 100 μL of the culture supernatant was replaced by the CellTiter-Glo reagent. After incubation for 15 minutes at room temperature, the plate was read with a luminometer.

T3 sequence (P35968 20-1356): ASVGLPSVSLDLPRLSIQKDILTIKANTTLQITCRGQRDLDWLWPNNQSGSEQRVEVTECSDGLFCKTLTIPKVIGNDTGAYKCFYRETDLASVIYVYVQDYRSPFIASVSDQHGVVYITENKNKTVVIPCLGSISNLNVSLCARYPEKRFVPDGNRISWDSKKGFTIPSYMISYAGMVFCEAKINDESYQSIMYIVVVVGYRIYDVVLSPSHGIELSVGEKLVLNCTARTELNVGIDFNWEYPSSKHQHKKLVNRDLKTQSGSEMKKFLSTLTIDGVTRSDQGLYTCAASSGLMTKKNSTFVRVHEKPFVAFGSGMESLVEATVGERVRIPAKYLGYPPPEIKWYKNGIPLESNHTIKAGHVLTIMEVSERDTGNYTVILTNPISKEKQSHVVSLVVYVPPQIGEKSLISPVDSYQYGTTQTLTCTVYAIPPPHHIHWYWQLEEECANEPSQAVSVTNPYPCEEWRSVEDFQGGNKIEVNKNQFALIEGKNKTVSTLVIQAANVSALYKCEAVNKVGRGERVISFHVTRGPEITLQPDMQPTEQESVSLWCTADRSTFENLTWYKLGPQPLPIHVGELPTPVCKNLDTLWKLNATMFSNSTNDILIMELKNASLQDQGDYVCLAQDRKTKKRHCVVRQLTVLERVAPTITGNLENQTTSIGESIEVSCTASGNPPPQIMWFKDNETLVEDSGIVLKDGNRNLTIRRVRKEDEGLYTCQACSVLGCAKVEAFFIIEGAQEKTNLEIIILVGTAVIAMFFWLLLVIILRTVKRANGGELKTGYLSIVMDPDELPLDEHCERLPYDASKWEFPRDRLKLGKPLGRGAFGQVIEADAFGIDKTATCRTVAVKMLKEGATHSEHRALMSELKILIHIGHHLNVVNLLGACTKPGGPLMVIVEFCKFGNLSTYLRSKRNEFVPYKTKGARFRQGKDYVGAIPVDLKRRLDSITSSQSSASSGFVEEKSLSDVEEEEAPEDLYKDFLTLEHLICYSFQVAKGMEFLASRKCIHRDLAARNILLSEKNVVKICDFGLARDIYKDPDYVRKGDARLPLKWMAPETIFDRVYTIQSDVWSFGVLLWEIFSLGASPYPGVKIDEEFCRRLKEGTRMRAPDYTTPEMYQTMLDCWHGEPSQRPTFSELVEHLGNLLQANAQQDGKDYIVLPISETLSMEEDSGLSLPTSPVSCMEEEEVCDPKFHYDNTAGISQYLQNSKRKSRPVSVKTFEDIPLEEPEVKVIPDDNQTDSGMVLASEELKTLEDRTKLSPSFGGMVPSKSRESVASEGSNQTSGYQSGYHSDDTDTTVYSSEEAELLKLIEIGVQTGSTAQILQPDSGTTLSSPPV
T2 sequence (Q96GD4 whole entry): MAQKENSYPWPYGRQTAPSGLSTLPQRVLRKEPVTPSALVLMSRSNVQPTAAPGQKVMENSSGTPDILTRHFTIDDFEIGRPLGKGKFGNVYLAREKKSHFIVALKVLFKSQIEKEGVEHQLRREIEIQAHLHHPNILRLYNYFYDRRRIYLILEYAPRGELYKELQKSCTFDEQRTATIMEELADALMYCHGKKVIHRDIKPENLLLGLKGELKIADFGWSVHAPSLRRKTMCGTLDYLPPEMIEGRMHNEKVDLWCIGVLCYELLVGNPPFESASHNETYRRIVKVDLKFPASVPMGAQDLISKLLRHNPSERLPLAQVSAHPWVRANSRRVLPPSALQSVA

What is called IC50 is the concentration needed to halve the response being measured. Regarding `NC(=O)C(=C1Nc2ccc([N+](=O)[O-])cc2S1)c1nccc(C(F)(F)F)n1` (single isomer, unassigned) [Compound 26A, 2-[6-nitrobenzothiazol-2(3H)-ylidene]-2-(4-trifluoromethylpyrimidin-2-yl)acetamide], the IC50 on Aurora A kinase was 0.2 µM; on Aurora B kinase it was 0.1 µM; against VEGFR2 kinase, 1 µM; in the test with p-H3 in HCT116 cells, greater than 50 µM; in test [1], 20 µM.
With `COC(=O)c1cnc(/C(C(N)=O)=C2/Nc3ccccc3S2)nc1C(F)(F)F` [Compound 3A], the concentration for half-maximal inhibition (IC50) worked out at 0.02 µM at Aurora A kinase; 0.01 µM at Aurora B kinase; 0.09 µM on VEGFR2 kinase; 20 µM with p-H3 in HCT116 cells; 3 µM in test [1].
Turning to `COC(=O)c1cnc(C(C(N)=O)=C2Nc3ccccc3N2)nc1C(F)(F)F` [Compound 4A], the 50% inhibitory concentration (IC50) at Aurora A kinase is 0.004 µM; on Aurora B kinase it was 0.01 µM; against VEGFR2 kinase, 0.03 µM; in the test with p-H3 in HCT116 cells, greater than 40 µM; in test [1], 2 µM.
For the compound `NC(=O)/C(=C1\Nc2ccccc2S1)c1nc(OCCN2CCOCC2)cc(C(F)(F)F)n1` [Compound 14A], the IC50 at Aurora A kinase is 0.05 µM; on Aurora B kinase it was 0.03 µM; at VEGFR2 kinase, 0.08 µM; with p-H3 in HCT116 cells it was greater than 50 µM; in test [1], 8 µM.
In the same order, the values of `Cc1ccnc(/C(C(N)=O)=C2/Nc3ccccc3S2)n1` [Compound 18A] are 0.2 µM, 0.04 µM, 0.5 µM, 2 µM and 20 µM.
Turning to `Cc1ccnc(C(C(N)=O)=C2Nc3ccccc3N2)n1` [Compound 19A], the IC50 was 0.4 µM at Aurora A kinase, 0.03 µM at Aurora B kinase, greater than 50 µM in the test with p-H3 in HCT116 cells and 20 µM in test [1].
As to `CCc1cnc(/C(C(N)=O)=C2/Nc3ccccc3S2)nc1` [Compound 21A], the half-inhibitory concentration (IC50) on Aurora A kinase came out at 0.2 µM; at Aurora B kinase it was 0.1 µM; on VEGFR2 kinase, 1 µM; in test [1], 20 µM.
Regarding `Cc1cc(C)nc(/C(C(N)=O)=C2/Nc3ccccc3S2)n1` [Compound 22A], the concentration for half-maximal inhibition (IC50) at Aurora A kinase was 0.08 µM; on Aurora B kinase it was 0.01 µM; at VEGFR2 kinase, 0.2 µM; in the test with p-H3 in HCT116 cells, 2 µM; in test [1] it was 10 µM.
As to `COC(=O)c1cc(C)nc(/C(C(N)=O)=C2/Nc3ccccc3S2)n1` [Compound 23A], the IC50 stood at 0.07 µM on Aurora A kinase; 0.006 µM on Aurora B kinase; 0.1 µM against VEGFR2 kinase; 8 µM in the test on p-H3 in HCT116 cells; 50 µM in test [1].
With `Cc1cc(C(=O)O)nc(/C(C(N)=O)=C2/Nc3ccccc3S2)n1` [Compound 24A], the half-inhibitory concentration (IC50) at Aurora A kinase was 0.9 µM; on Aurora B kinase it was 1 µM; against VEGFR2 kinase, 0.4 µM; in test [1], greater than 50 µM.
As to `NC(=O)/C(=C1\Nc2ccc(I)cc2S1)c1nccc(C(F)(F)F)n1` [Compound 25A], the half-maximal inhibitory concentration (IC50) at Aurora A kinase is 0.2 µM; at Aurora B kinase it was 0.1 µM; at VEGFR2 kinase, 0.4 µM; in the test on p-H3 in HCT116 cells, greater than 50 µM; in test [1], 10 µM.
In the same order, the values of `NC(=O)/C(=C1\Nc2ccc(C(=O)O)cc2S1)c1nccc(C(F)(F)F)n1` [Compound 27A] are 0.003 µM, 0.009 µM, 0.01 µM, 1 µM and 7 µM.
Turning to `COC(=O)c1ccc2c(c1)N/C(=C(/C(N)=O)c1nccc(C(F)(F)F)n1)N2` [Compound 29A], the 50% inhibitory concentration (IC50) is 0.03 µM on Aurora A kinase; 0.01 µM at Aurora B kinase; 0.1 µM against VEGFR2 kinase; greater than 5 µM in the test with p-H3 in HCT116 cells; 0.2 µM in test [1].
On to `NC(=O)/C(=C1\Nc2ccc(C(=O)N(CCO)CCO)cc2N1)c1nccc(C(F)(F)F)n1` [Compound 30A], for which the half-inhibitory concentration (IC50) at Aurora A kinase is 0.01 µM; at Aurora B kinase, 0.01 µM; on VEGFR2 kinase, 0.008 µM; in the test with p-H3 in HCT116 cells, 1 µM.
Consider `NC(=O)/C(=C1\Nc2ccc(CO)cc2N1)c1nccc(C(F)(F)F)n1` [Compound 35A], for which the IC50 at Aurora A kinase worked out at 0.009 µM; on Aurora B kinase, 0.005 µM; at VEGFR2 kinase it was 0.02 µM; in the test with p-H3 in HCT116 cells, 0.6 µM; in test [1], 0.2 µM.
In the same order, the values of `NC(=O)/C(=C1/Nc2cc(F)cc(F)c2N1)c1nccc(C(F)(F)F)n1` [Compound 36A] are 0.03 µM, 0.04 µM, 0.2 µM, greater than 5 µM and 4 µM.
With `CCN(C(=O)c1ccc2c(c1)N/C(=C(/C(N)=O)c1nccc(C(F)(F)F)n1)N2)c1cccnc1` [Compound 43A], the IC50 on Aurora A kinase is 0.006 µM; at Aurora B kinase it was 0.01 µM.
Turning to `NC(=O)/C(=C1\Nc2cccc(C(=O)NCCCN3CCOCC3)c2S1)c1nccc(C(F)(F)F)n1` [Compound 52A], the IC50 at Aurora A kinase is 0.06 µM; on Aurora B kinase it was 0.06 µM; on VEGFR2 kinase, 0.1 µM; in the test on p-H3 in HCT116 cells, greater than 50 µM; in test [1] it was 1 µM.
Consider `NCCCNC(=O)c1ccc2c(c1)N/C(=C(/C(N)=O)c1nccc(C(F)(F)F)n1)N2` [Compound 64A], for which the IC50 on Aurora A kinase turned out to be 0.05 µM; on Aurora B kinase it was 0.02 µM; against VEGFR2 kinase, 0.01 µM; with p-H3 in HCT116 cells, 0.9 µM; in test [1], 2 µM.
Regarding `NCCCNC(=O)c1ccc2c(c1)S/C(=C(/C(N)=O)c1nccc(C(F)(F)F)n1)N2` [Compound 65A], the IC50 amounted to 0.03 µM at Aurora A kinase; 0.02 µM at Aurora B kinase; 0.007 µM at VEGFR2 kinase; 0.4 µM in the test with p-H3 in HCT116 cells; 0.2 µM in test [1].
In the case of `Cn1cncc1CCc1ccc2c(c1)S/C(=C(/C(N)=O)c1nccc(C(F)(F)F)n1)N2` [Compound 98A], the concentration for half-maximal inhibition (IC50) is 0.006 µM on Aurora A kinase and 0.008 µM on Aurora B kinase.
Turning to `NC(=O)/C(=C1\Nc2ccc(CCN3CCOCC3)cc2N1)c1nccc(C(F)(F)F)n1` [Compound 102A], the half-inhibitory concentration (IC50) stood at 0.004 µM at Aurora A kinase, 0.007 µM at Aurora B kinase and 0.05 µM in the test with p-H3 in HCT116 cells.
`NC(=O)/C(=C1\Nc2ccc(CCO)cc2N1)c1nccc(C(F)(F)F)n1` [Compound 105A]: the half-maximal inhibitory concentration (IC50) on Aurora A kinase worked out at 0.005 µM; on Aurora B kinase it was 0.007 µM; in the test with p-H3 in HCT116 cells, 0.1 µM.
